In ChEMBL document CHEMBL5608221, “Innovative Therapeutic Approaches Targeting K-Ras: Analysis of Macrocyclic Compounds, Peptidomimetics, and Pyridopyrimidine Inhibitors” (ACS Med Chem Lett, 2024):

Molecular target: GTPase KRas (Homo sapiens, UniProt P01116, G12V)
Test: Inhibition of GDP bound KRAS G12V mutant (unknown origin)

GTPase KRas, sequence (P01116 whole entry G12V): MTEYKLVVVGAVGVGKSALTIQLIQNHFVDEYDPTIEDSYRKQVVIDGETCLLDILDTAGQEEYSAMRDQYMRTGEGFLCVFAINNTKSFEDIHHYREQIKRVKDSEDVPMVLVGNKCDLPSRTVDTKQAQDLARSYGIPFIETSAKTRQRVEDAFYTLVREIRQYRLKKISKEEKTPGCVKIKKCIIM

IC50	SMILES
405 pM	C#Cc1c(F)ccc2cc(O)cc(-c3ncc4c(N(C)[C@H]5C[C@@H]5F)nc(OCC56CCCN5CC(=C)C6)nc4c3F)c12 (some centres not stated)
371 pM	C#Cc1c(F)ccc2cc(O)cc(-c3ncc4c(N(C)[C@H]5C[C@@H]5F)nc(OCC56CCCN5CC(=C)C6)nc4c3F)c12.OCC(F)(F)F (some centres not stated)
246 pM	C#Cc1c(F)ccc2cc(O)cc(-c3ncc4c(N(C)[C@H]5C[C@@H]5F)nc(OC[C@@]56CCCN5CC(=C)C6)nc4c3F)c12
1990 pM	C#Cc1c(F)ccc2cc(N)cc(-c3ncc4c(N(C)[C@H]5C[C@@H]5F)nc(OCC56CCCN5CC(=C)C6)nc4c3F)c12.OCC(F)(F)F (some centres not stated)
689 pM	[2H]C([2H])([2H])N(c1nc(OC([2H])([2H])C23CCC([2H])([2H])N2C[C@@]([2H])(F)C3)nc2c(F)c(-c3cc(O)cc4ccc(F)c(C#C)c34)ncc12)[C@H]1C[C@@H]1F (some centres not stated)
589 pM	C#Cc1c(F)ccc2cc(O)cc(-c3ncc4c(N(C)[C@H]5C[C@@H]5F)nc(OC[C@]56CCCN5CC(=C)C6)nc4c3F)c12
216 pM	[2H]C([2H])([2H])N(c1nc(OC([2H])([2H])C23CCC([2H])([2H])N2C[C@]([2H])(F)C3)nc2c(F)c(-c3cc(O)cc4ccc(F)c(C#C)c34)ncc12)[C@H]1C[C@@H]1F (some centres not stated)
